Data reported in patent publication US5298488A, “CM-chitin derivatives and use thereof” (Fuji Photo Film Co., Ltd., priority 1990, dated 1994).
No end group written: not given here. sulfated CM‑chitin = sulfated carboxymethyl-chitin (CM-chitin), conjugated to the peptide; sulfated succinylated CM‑chitin = sulfated succinylated CM-chitin; trimellityl CM‑chitin = trimellityl derivative of CM-chitin; succinylated CM‑Chitin = succinylated CM-chitin

Columns and labels:
[1] = system: human plasma rich in platelet; assay: Platelet coagulation-inhibitory activity in vitro, transmittance by aggregometer; format: cell-based; conditions: 37° C., 3 minutes preincubation; for Platelet Coagulation-Inhibitory Action IC50, ADP Stimulation: ADP stimulation (50 μM ADP solution); for Platelet Coagulation-Inhibitory Action IC50, Collagen Stimulation: collagen stimulation (200 μg/ml collagen solution)
Description: The platelet coagulation-inhibitory effect of the CM-chitin derivative of the present invention was assayed, in vitro, using human plasma rich in platelet. The experimental method will be described below.
To fresh human blood, there was added 1/9 volume of a 3.8% sodium citrate solution, the resulting mixture was centrifuged (1000 rpm; for 10 minutes) and the upper layer was separated as a plasma rich in platelet. A lyophilized CM-chitin derivative was dissolved in physiological saline to give a plurality of solutions having various concentrations ranging from 0 to 1.5 mg/ml. Each of the solutions (25 μ1) was added to 200 µl of the plasma, incubated at 37° C. for 3 minutes, then a 50 μM of ADP (adenosine diphosphate) solution or a 200 μg/ml collagen solution was added to determine the extent of coagulation in terms of transmittance determined by an aggregometer.
Rate of Coagulation Inhibition=(1-T/T .)×100%
T . : transmittance observed when a salt of CM-chitin derivative was not added.
T : transmittance observed when a salt of CM-chitin derivative was added.

fibronectin = assay: Cell adhesion-inhibitory test against fibronectin (competitive assay, number of adhered cells); format: cell-based, human; conditions: endothelium cells of blood vessel, 37° C., one hour, 0 mg/ml control 160
Description: (§1) A method for determining the activity of the CM-chitin derivatives of the present invention for inhibiting adhesion of cells to fibronectin or vitronectin will be described below. The competitive assays used herein have widely been employed tin the field of biochemistry and are detailed in, for instance, "Method in Enzymology", 1981, 82, pp. 803-831; and J. P. KOKAI Nos. Hei 1-309682 and Hei 2-174797.
(§2) Commercially available fibroneotin (derived from human; purchased from Seikaqaku Kogyo K. K.) and vitronectin (derived from human; purchased from Funakoshi Co., Ltd.) each was diluted to 1.0 μ1/ml and 2.0 μ1/ml with PBS (NaH2 PO4 0.005 M+NaCl 0.07 M), 0.5 ml of the resulting diluted solution was dispensed into a plastic plate having 24 wells and incubated at 37° C. overnight to perform coating of the plate. Then bovine serum albumin (BSA 1%) was added followed by incubation at 37° C. for one hour for inhibiting the occurrence of nonspecific adsorption, then washing with PBS in the usual manner and sufficient drainage to give an adsorption plate.
A CM-chitin derivative obtained through lyophilization was diluted with Dulbecco's Modified Eagles Medium (hereunder referred to as "DMEM") to give solutions of the CM-chitin derivative having concentrations of 0, 0.25, 0.5, 1.0 and 1.5 mg/ml respectively. Each of the solutions (0.25 ml) was dispensed to the plate prepared above, 0.25 ml of a suspension of endothelium cells of blood vessel (4×10^6 cells/ml) was added to the plate and incubated at 37° C. for one hour to thus cause cohesion of the cells. The plate was washed three times with DMEM medium to remove non-adhesive cells, then the adhered cells were peeled off with a 0.025% EDTA trypsin solution and stained with a 2% Trypan Blue solution to determine the number of the adhered cells.

vitronectin = assay: Cell adhesion-inhibitory test against vitronectin (competitive assay, number of adhered cells); format: cell-based, human; conditions: endothelium cells of blood vessel, 37° C., one hour, 0 control 249
Description: as §1, §2
[…] Each of the solutions (0.25 ml) was dispensed to the plate prepared above, 0.25 ml of a suspension of endothelium cells of blood vessel (4×10^6 cells/ml) was added to the plate and incubated at 37° C. for one hour to thus cause cohesion of the cells. The plate was washed three times with DMEM medium to remove non-adhesive cells, then the adhered cells were peeled off with a 0.025% EDTA trypsin solution and stained with a 2% Trypan Blue solution to determine the number of the adhered cells.

[2] = concentration 10 mg/ml (so in the source)
[3] = concentration 50 mg/ml (so in the source)
[4] = concentration 100 mg/ml (so in the source)
[5] = concentration 300 mg/ml (so in the source)

Row | Substance | Platelet Coagulation-Inhibitory Action IC50, ADP Stimulation [1] [µg/mL] | Platelet Coagulation-Inhibitory Action IC50, Collagen Stimulation [1] [µg/mL] | Cell Adhesion-Inhibitory effect Against Fibronectin (number of adhered cells) (fibronectin; concentration 0.5 mg/ml) [cell/well] | Cell Adhesion-Inhibitory effect Against Fibronectin (number of adhered cells) (fibronectin; concentration 1.0 mg/ml) [cell/well] | Cell Adhesion-Inhibitory effect Against Fibronectin (number of adhered cells) (fibronectin; concentration 1.5 mg/ml) [cell/well] | Cell Adhesion-Inhibitory effect Against Fibronectin (number of adhered cells) (fibronectin; concentration .25 mg/ml) [cell/well] | Cell Adhesion-Inhibitory effect Against Vitronectin (number of adhered cells) (vitronectin; [2]) [cell/well] | Cell Adhesion-Inhibitory effect Against Vitronectin (number of adhered cells) (vitronectin; [3]) [cell/well] | Cell Adhesion-Inhibitory effect Against Vitronectin (number of adhered cells) (vitronectin; [4]) [cell/well] | Cell Adhesion-Inhibitory effect Against Vitronectin (number of adhered cells) (vitronectin; [5]) [cell/well]
1 | CM-Chitin Gly-Arg-Gly-Asp-Ser (GRGDS; also: conjugated to CM-chitin) [CM--chitin derivative-7] | 30 | 16 | 98 | 84 | 71 | 119 | 143 | 85 | 79 | 55
2 | Sulfated CM-Chitin-Gly-Arg-Gly-Asp-Ser ({sulfated CM‑chitin}-GRGDS) [CM--chitin derivative-14] | 12 | 3 | 93 | 68 | 41 | 111 | 107 | 78 | 43 | 34
3 | CM-Chitin-Gly-Arg-Gly-Asp-Ser-Pro [CM--chitin derivative-19] | 19 | 5 | 106 | 79 | 56 | 127 | 130 | 92 | 63 | 39
4 | CM-Chitin Arg-Gly-Asp-Ser (RGDS; also: conjugated to CM-chitin) [CM--chitin derivative-18] | 21 | 10 | 101 | 75 | 52 | 133 | 125 | 83 | 56 | 44
5 | Sulfated Succinylated CM-Chitin-Gly-Arg-Gly-Asp-Ser ({sulfated succinylated CM‑chitin}-GRGDS) [CM--chitin derivative-16] | 12 | 2 | 81 | 75 | 50 | 103 | 122 | 81 | 63 | 40
6 | Phthaloyl derivative of CM-Chitin Arg-Gly-Asp-Ser (RGDS; also: conjugated to phthaloyl CM-chitin) [CM--chitin derivative-4] | 29 | 15 | 121 | 80 | 67 | 141 | 145 | 90 | 67 | 45
7 | Succinylated CM-Chitin-(Arg-Gly-Asp)3 ({succinylated CM‑Chitin}-RGDRGDRGD) [CM--chitin derivative-11] | 21 | 12 | 125 | 78 | 70 | 143 | 147 | 100 | 73 | 45
8 | Trimellityl Derivative of CM-Chitin Arg-Gly-Asp-Ser ({trimellityl CM‑chitin}-RGDS) [CM--chitin derivative-6] | 26 | 11 | 107 | 93 | 66 | 127 | 133 | 98 | 71 | 56
